How the values were obtained:
[1] = tested on: Parabacteroides distasonis; assay: Antimicrobial activity against Parabacteroides distasonis by Wadsworth agar dilution method; type: functional
[2] = tested on: Bacteroides fragilis; assay: Antimicrobial activity against Bacteroides fragilis by Wadsworth agar dilution method; type: functional
[3] = tested on: Bacteroides ovatus; assay: Antimicrobial activity against Bacteroides ovatus by Wadsworth agar dilution method; type: functional
[4] = tested on: Bacteroides thetaiotaomicron; assay: Antimicrobial activity against Bacteroides thetaiotaomicron by Wadsworth agar dilution method; type: functional
[5] = tested on: Bacteroides uniformis; assay: Antimicrobial activity against Bacteroides uniformis by Wadsworth agar dilution method; type: functional
[6] = tested on: Desulfovibrio vulgaris; assay: Antimicrobial activity against Desulfovibrio vulgaris by Wadsworth agar dilution method; type: functional; conditions: Nitratidesulfovibrio vulgaris
[7] = tested on: Fusobacterium nucleatum; assay: Antimicrobial activity against Fusobacterium nucleatum by Wadsworth agar dilution method; type: functional
[8] = tested on: Fusobacterium mortiferum; assay: Antimicrobial activity against Fusobacterium mortiferum by Wadsworth agar dilution method in presence of beta-lactamase inhibitor Sulbactam; type: functional
[9] = tested on: Fusobacterium necrophorum; assay: Antimicrobial activity against Fusobacterium necrophorum by Wadsworth agar dilution method; type: functional
[10] = tested on: Porphyromonas somerae; assay: Antimicrobial activity against Porphyromonas somerae by Wadsworth agar dilution method; type: functional
[11] = tested on: Prevotella bivia; assay: Antimicrobial activity against Prevotella bivia by Wadsworth agar dilution method; type: functional
[12] = tested on: Prevotella disiens; assay: Antimicrobial activity against Prevotella disiens by Wadsworth agar dilution method; type: functional
[13] = tested on: Prevotella intermedia; assay: Antimicrobial activity against Prevotella intermedia by Wadsworth agar dilution method; type: functional
[14] = tested on: Clostridioides difficile; assay: Antimicrobial activity against Clostridium difficile by Wadsworth agar dilution method; type: functional
[15] = tested on: Clostridium acetobutylicum; assay: Antimicrobial activity against Clostridium acetobutylicum by Wadsworth agar dilution method; type: functional
[16] = tested on: Clostridium bartlettii; assay: Antimicrobial activity against Clostridium bartlettii by Wadsworth agar dilution method; type: functional; conditions: Intestinibacter bartlettii
[17] = tested on: Clostridium beijerinckii; assay: Antimicrobial activity against Clostridium beijerinckii by Wadsworth agar dilution method; type: functional
[18] = tested on: Paraclostridium bifermentans; assay: Antimicrobial activity against Clostridium bifermentans by Wadsworth agar dilution method; type: functional
[19] = tested on: Clostridium glycolicum; assay: Antimicrobial activity against Clostridium glycolicum by Wadsworth agar dilution method; type: functional; conditions: Terrisporobacter glycolicus
[20] = tested on: Tissierella praeacuta; assay: Antimicrobial activity against Clostridium hastiforme by Wadsworth agar dilution method; type: functional
[21] = tested on: Clostridium scindens; assay: Antimicrobial activity against Clostridium scindens by Wadsworth agar dilution method; type: functional
[22] = tested on: Clostridium septicum; assay: Antimicrobial activity against Clostridium septicum by Wadsworth agar dilution method; type: functional
[23] = tested on: Clostridium sp.; assay: Antimicrobial activity against Clostridium sp. by Wadsworth agar dilution method; type: functional
[24] = tested on: Clostridium spiroforme; assay: Antimicrobial activity against Clostridium spiroforme by Wadsworth agar dilution method; type: functional; conditions: Thomasclavelia spiroformis
[25] = tested on: Clostridium subterminale; assay: Antimicrobial activity against Clostridium subterminale by Wadsworth agar dilution method; type: functional
[26] = tested on: Schaalia meyeri; assay: Antimicrobial activity against Actinomyces meyeri by Wadsworth agar dilution method; type: functional
[27] = tested on: Schaalia odontolytica; assay: Antimicrobial activity against Actinomyces odontolyticus by Wadsworth agar dilution method; type: functional
[28] = tested on: Bifidobacterium dentium; assay: Antimicrobial activity against Bifidobacterium dentium by Wadsworth agar dilution method; type: functional
[29] = Antimicrobial activity against Bifidobacterium infantis by Wadsworth agar dilution method; type: functional, Bifidobacterium longum subsp. infantis; conditions: Bifidobacterium longum
[30] = tested on: Bifidobacterium longum; assay: Antimicrobial activity against Bifidobacterium longum by Wadsworth agar dilution method; type: functional
[31] = tested on: Bifidobacterium pseudolongum; assay: Antimicrobial activity against Bifidobacterium pseudolongum by Wadsworth agar dilution method; type: functional
[32] = tested on: Coprobacillus cateniformis; assay: Antimicrobial activity against Coprobacillus cateniformis by Wadsworth agar dilution method; type: functional
[33] = tested on: Eggerthella lenta; assay: Antimicrobial activity against Eggerthella lenta by Wadsworth agar dilution method; type: functional
[34] = tested on: Eubacterium cylindroides; assay: Antimicrobial activity against Eubacterium cylindroides by Wadsworth agar dilution method; type: functional; conditions: Faecalitalea cylindroides
[35] = tested on: Eubacterium limosum; assay: Antimicrobial activity against Eubacterium limosum by Wadsworth agar dilution method; type: functional
[36] = tested on: Eubacterium rectale; assay: Antimicrobial activity against Eubacterium rectale by Wadsworth agar dilution method; type: functional; conditions: Agathobacter rectalis
[37] = tested on: Lactobacillus acidophilus; assay: Antimicrobial activity against Lactobacillus acidophilus by Wadsworth agar dilution method; type: functional
[38] = tested on: Lactiplantibacillus plantarum; assay: Antimicrobial activity against Lactobacillus plantarum by Wadsworth agar dilution method; type: functional
[39] = tested on: Limosilactobacillus reuteri; assay: Antimicrobial activity against Lactobacillus reuteri by Wadsworth agar dilution method; type: functional
[40] = tested on: Lactobacillus sp.; assay: Antimicrobial activity against Lactobacillus sp. by Wadsworth agar dilution method; type: functional
[41] = tested on: Cutibacterium acnes; assay: Antimicrobial activity against Propionibacterium acnes by Wadsworth agar dilution method; type: functional
[42] = tested on: Propionibacterium avidum; assay: Antimicrobial activity against Propionibacterium avidum by Wadsworth agar dilution method; type: functional; conditions: Cutibacterium avidum
[43] = tested on: Anaerococcus tetradius; assay: Antimicrobial activity against Anaerococcus tetradius by Wadsworth agar dilution method; type: functional
[44] = tested on: Peptoniphilus asaccharolyticus; assay: Antimicrobial activity against Peptoniphilus asaccharolyticus by Wadsworth agar dilution method; type: functional
[45] = tested on: Ruminococcus gnavus; assay: Antimicrobial activity against Ruminococcus gnavus by Wadsworth agar dilution method; type: functional; conditions: Mediterraneibacter gnavus
[46] = tested on: Ruminococcus lactaris; assay: Antimicrobial activity against Ruminococcus lactaris by Wadsworth agar dilution method; type: functional
[47] = tested on: Ruminococcus obeum; assay: Antimicrobial activity against Ruminococcus obeum by Wadsworth agar dilution method; type: functional; conditions: Blautia obeum

CN[C@H](CC(C)C)C(=O)N[C@H]1C(=O)N[C@@H](CC(N)=O)C(=O)N[C@H]2C(=O)N[C@H]3C(=O)N[C@H](C(=O)N[C@H](C(=O)O)c4cc(O)cc(O)c4-c4cc3ccc4O)[C@H](O)c3ccc(c(Cl)c3)Oc3cc2cc(c3O[C@@H]2O[C@H](CO)[C@@H](O)[C@H](O)[C@H]2O[C@H]2C[C@](C)(N)[C@H](O)[C@H](C)O2)Oc2ccc(cc2Cl)[C@H]1O [VANCOMYCIN]
4 µg/mL: MIC50 [10] | MIC90 [15] | MIC90 [16] | MIC90 [17] | MIC90 [18] | MIC90 [19] | MIC90 [20] | MIC90 [21] | MIC90 [22] | MIC90 [23] | MIC90 [24] | MIC90 [25]
512 µg/mL: MIC90 [7]
256 µg/mL: MIC90 [4] | MIC50 [7] | MIC50 [8] | MIC50 [9] | MIC90 [11] | MIC90 [12] | MIC90 [13]
8 µg/mL: MIC90 [10]
1 µg/mL: MIC [14] | MIC50 [14] | MIC50 [15] | MIC50 [16] | MIC50 [17] | MIC50 [18] | MIC50 [19] | MIC50 [20] | MIC50 [21] | MIC50 [22] | MIC50 [23] | MIC50 [24] | MIC50 [25] | MIC50 [26] | MIC50 [27] | MIC50 [28] | MIC50 [29] | MIC50 [30] | MIC50 [31] | MIC50 [32] | MIC50 [33] | MIC50 [34] | MIC50 [35] | MIC50 [36] | MIC50 [37] | MIC50 [38] | MIC50 [39] | MIC50 [40] | MIC50 [41] | MIC50 [42] | MIC90 [43] | MIC90 [44] | MIC90 [45] | MIC90 [46] | MIC90 [47]
128 µg/mL: MIC50 [1] | MIC90 [1] | MIC90 [2] | MIC50 [3] | MIC90 [3] | MIC50 [4] | MIC90 [5] | MIC50 [11] | MIC50 [12] | MIC50 [13]
64 µg/mL: MIC50 [2] | MIC [5] | MIC50 [5] | MIC90 [26] | MIC90 [27] | MIC90 [28] | MIC90 [29] | MIC90 [30] | MIC90 [31] | MIC90 [32] | MIC90 [33] | MIC90 [34] | MIC90 [35] | MIC90 [36] | MIC90 [37] | MIC90 [38] | MIC90 [39] | MIC90 [40] | MIC90 [41] | MIC90 [42]
2 µg/mL: MIC90 [14]
0.5 µg/mL: MIC50 [43] | MIC50 [44] | MIC50 [45] | MIC50 [46] | MIC50 [47]
> 1020 µg/mL: MIC50 [6] | MIC90 [6] | MIC90 [8] | MIC90 [9]

From ChEMBL document CHEMBL1275577, “Study of the in vitro activities of rifaximin and comparator agents against 536 anaerobic intestinal bacteria from the perspective of potential utility in pathology involving bowel flora” (Antimicrob Agents Chemother, 2009)
